A short description of data set [1]: Crystal form stability experiment (XRPD). As to conditions: for Results (XRPD): uncapped or sealed, protected from light, 7 days and 14 days. It is filed as physicochemical. As for the experimental part:
1. […] The crystal forms stability test was carried out under the specified experimental conditions.

Data set [2] in a line: PK in rat, oral suspension. It is filed as in vivo. The settings on record: Sprague-Dawley, plasma, SD rats, PO: 5 mg/kg, suspension in 0.5% CMC-Na. As for the experimental part:
The plasma samples were collected at 0 hour (pre-dose), 0.083, 0.25, 0.5, 1, 2, 4, 6, 8, 24 hours post-dose. Plasma drug concentration was detected by LC-MS/MS. Pharmacokinetic parameters were calculated using WinNonlin's software with non-compartmental model.

Data set [3] is described as follows: PK in dog, oral suspension. The format is in vivo, Beagle dogs. As to conditions: for AUC(0-t) / Cmax / half-life: dog, plasma, Beagle dogs, suspension in 0.5% CMC-Na. As for the experimental part: Then plasma samples were collected at 0 hour (pre-dose), 0.083, 0.25, 0.5, 1, 2, 4, 6, 8, 24 hours post-dose. Plasma drug concentration was detected by LC-MS/MS. Pharmacokinetic parameters were calculated using WinNonlin's software with non-compartmental model.

SMILES strings stand for the structures.

Turning to `Cc1cc(Nc2nc(C[C@@]3(C(=O)[O-])CCN(Cc4cccc(Cl)c4F)[C@H](C)C3)cc(C)c2F)n[nH]1.[K+]` [polymorph form I, potassium (2R,4R)-1-(3-chloro-2-fluorobenzyl)-4-((5-fluoro-4-methyl-6-((3-methyl-1H-pyrazol-5-yl)amino)pyridin-2-yl)methyl)-2-methylpiperidine-4-carboxylate monohydrate], the “Results (XRPD)” value is recorded as “Polymorph form I” in data set [1] (Accelerated (40° C. ± 2° C., 75% RH ± 10% RH)) and “Polymorph form I” in data set [1] (Long-time (25° C. ± 2° C., 65% RH ± 10% RH)). Moreover, in data set [1] (at room temperature), the “relative stability of the forms” value is reported as “most stable”. Moreover, the crystal form stability entry in data set [1] (long-term and accelerated conditions for 14 days) was “remained unchanged”. Besides, the AUC(0-t) in data set [2] stood at 93300 ng·h/mL; in data set [3] (PO: 3 mg/kg), 45500 ng·h/mL; in data set [3] (PO: 10 mg/kg), 165000 ng·h/mL. Besides, the results for the Cmax in data set [2], in data set [3] (PO: 3 mg/kg) and in data set [3] (PO: 10 mg/kg) were 12400 ng/mL, 14400 ng/mL and 45000 ng/mL, respectively. The half-life is 4.11 h in data set [2], 8.12 h in data set [3] (PO: 3 mg/kg) and 4.51 h in data set [3] (PO: 10 mg/kg). Moreover, in data set [3] (oral, summary of Examples 6 and 7 (rat and dog)), the “absorption and exposure in vivo” value is “great absorption and a high exposure”.

For the compound `Cc1cc(Nc2nc(C[C@@]3(C(=O)[O-])CCN(Cc4cccc(Cl)c4F)[C@H](C)C3)cc(C)c2F)n[nH]1.[K+]` [amorphous, potassium (2R,4R)-1-(3-chloro-2-fluorobenzyl)-4-((5-fluoro-4-methyl-6-((5-methyl-1H-pyrazol-3-yl)amino)pyridin-2-yl)methyl)-2-methylpiperidine-4-carboxylate], in data set [1] (sealed for more than two weeks), the solid form conversion entry is “transformed to Polymorph form I”.

Take `Cc1cc(Nc2nc(C[C@@]3(C(=O)[O-])CCN(Cc4cccc(Cl)c4F)[C@H](C)C3)cc(C)c2F)n[nH]1.[K+]` [Polymorph form III, potassium (2R,4R)-1-(3-chloro-2-fluorobenzyl)-4-((5-fluoro-4-methyl-6-((5-methyl-1H-pyrazol-3-yl)amino)pyridin-2-yl)methyl)-2-methylpiperidine-4-carboxylate]: the solid form conversion entry in data set [1] (when cooled back to room temperature) is listed as “converted to polymorph form I”.

As for `Cc1cc(Nc2nc(C[C@@]3(C(=O)[O-])CCN(Cc4cccc(Cl)c4F)[C@H](C)C3)cc(C)c2F)n[nH]1.[K+]` [Polymorph form II, potassium (2R,4R)-1-(3-chloro-2-fluorobenzyl)-4-((5-fluoro-4-methyl-6-((5-methyl-1H-pyrazol-3-yl)amino)pyridin-2-yl)methyl)-2-methylpiperidine-4-carboxylate], the solid form conversion result in data set [1] (after drying under 40° C. overnight) is “converted to polymorph form I”.

Values taken from patent US20240376075A1, “POLYMORPHIC FORMS OF AURORA A SELECTIVE INHIBITORS AND USES THEREOF” (Jacobio Pharmaceuticals Co., Ltd., priority 2021, published 2024).
